ChEMBL document CHEMBL1255297, “Genomewide screening for genes associated with gliotoxin resistance and sensitivity in Saccharomyces cerevisiae” (2008)
In brackets after ≈: the same amount, converted by molar mass.

Legend:
Type in all cases: functional
Saccharomyces cerevisiae [1] = experiment: Antimicrobial activity against Saccharomyces cerevisiae containing disruption in CYS3 gene by broth microdilution method
Saccharomyces cerevisiae [2] = experiment: Antimicrobial activity against Saccharomyces cerevisiae containing disruption in RTG2 gene by broth microdilution method
Saccharomyces cerevisiae [3] = experiment: Antimicrobial activity against Saccharomyces cerevisiae containing disruption in MEF2 gene by broth microdilution method
Saccharomyces cerevisiae [4] = experiment: Antimicrobial activity against Saccharomyces cerevisiae containing disruption in YKL037W gene by broth microdilution method
Saccharomyces cerevisiae [5] = experiment: Antimicrobial activity against Saccharomyces cerevisiae containing disruption in IFA38 gene by broth microdilution method
Saccharomyces cerevisiae [6] = experiment: Antimicrobial activity against Saccharomyces cerevisiae containing disruption in YOR345C gene by broth microdilution method
Saccharomyces cerevisiae [7] = experiment: Antimicrobial activity against Saccharomyces cerevisiae containing disruption in YGL072C gene by broth microdilution method
Saccharomyces cerevisiae [8] = experiment: Antimicrobial activity against Saccharomyces cerevisiae containing disruption in […] gene by broth microdilution method
Saccharomyces cerevisiae [9] = experiment: Antimicrobial activity against Saccharomyces cerevisiae containing disruption in YGL235W gene by broth microdilution method
Saccharomyces cerevisiae [10] = experiment: Antimicrobial activity against Saccharomyces cerevisiae containing disruption in SNF1 gene by broth microdilution method
Saccharomyces cerevisiae [11] = experiment: Antimicrobial activity against Saccharomyces cerevisiae containing disruption in APL2 gene by broth microdilution method
Saccharomyces cerevisiae [12] = experiment: Antimicrobial activity against Saccharomyces cerevisiae containing disruption in YLR456W gene by broth microdilution method
Saccharomyces cerevisiae [13] = experiment: Antimicrobial activity against Saccharomyces cerevisiae containing disruption in RAD18 gene by broth microdilution method
Saccharomyces cerevisiae [14] = experiment: Antimicrobial activity against wild type Saccharomyces cerevisiae BY4741 by broth microdilution method

Row | Structure (SMILES) | MIC (Saccharomyces cerevisiae [1]) | MIC (Saccharomyces cerevisiae [2]) | MIC (Saccharomyces cerevisiae [3]) | MIC (Saccharomyces cerevisiae [4]) | MIC (Saccharomyces cerevisiae [5]) | MIC (Saccharomyces cerevisiae [6]) | MIC (Saccharomyces cerevisiae [7]) | MIC (Saccharomyces cerevisiae [8]) | MIC (Saccharomyces cerevisiae [9]) | MIC (Saccharomyces cerevisiae [10]) | MIC (Saccharomyces cerevisiae [11]) | MIC (Saccharomyces cerevisiae [12]) | MIC (Saccharomyces cerevisiae [13]) | MIC (Saccharomyces cerevisiae [14])
1 | C[C@@H]1[C@H](O)[C@@H](C)/C=C/C=C/C=C/C=C/C=C/C=C/C=C/[C@H](O[C@@H]2O[C@H](C)[C@@H](O)[C@H](N)[C@@H]2O)C[C@@H]2O[C@](O)(C[C@@H](O)C[C@@H](O)[C@H](O)CC[C@@H](O)C[C@@H](O)CC(=O)O[C@H]1C)C[C@H](O)[C@H]2C(=O)O [AMPHOTERICIN B] | 0.25 µg/mL (≈ 0.271 µM) | 0.5 µg/mL (≈ 0.541 µM) | 0.25 µg/mL (≈ 0.271 µM) | 0.25 µg/mL (≈ 0.271 µM) | 0.5 µg/mL (≈ 0.541 µM) | 0.5 µg/mL (≈ 0.541 µM) | 0.5 µg/mL (≈ 0.541 µM) | 0.5 µg/mL (≈ 0.541 µM) | 0.5 µg/mL (≈ 0.541 µM) | 0.5 µg/mL (≈ 0.541 µM) | 0.5 µg/mL (≈ 0.541 µM) | 0.5 µg/mL (≈ 0.541 µM) | 0.5 µg/mL (≈ 0.541 µM) | 0.125 µg/mL (≈ 0.135 µM)
2 | CC[C@H](C)C[C@H](C)CCCCCCCCC(=O)N[C@H]1C[C@@H](O)[C@@H](NCCN)NC(=O)[C@@H]2[C@@H](O)CCN2C(=O)[C@H]([C@H](O)CCN)NC(=O)[C@H]([C@H](O)[C@@H](O)c2ccc(O)cc2)NC(=O)[C@@H]2C[C@@H](O)CN2C(=O)[C@H]([C@@H](C)O)NC1=O [CASPOFUNGIN] | 0.028 µg/mL (≈ 0.0256 µM) | 0.007 µg/mL (≈ 0.0064 µM) | 0.028 µg/mL (≈ 0.0256 µM) | 0.028 µg/mL (≈ 0.0256 µM) | 0.007 µg/mL (≈ 0.0064 µM) | 0.007 µg/mL (≈ 0.0064 µM) | 0.007 µg/mL (≈ 0.0064 µM) | 0.007 µg/mL (≈ 0.0064 µM) | 0.007 µg/mL (≈ 0.0064 µM) | 0.007 µg/mL (≈ 0.0064 µM) | 0.007 µg/mL (≈ 0.0064 µM) | 0.007 µg/mL (≈ 0.0064 µM) | 0.007 µg/mL (≈ 0.0064 µM) | 0.007 µg/mL (≈ 0.0064 µM)
3 | C[C@@H]1C[C@@H]([C@H](O)CC2CC(=O)NC(=O)C2)C(=O)[C@@H](C)C1 [CYCLOHEXIMIDE] | 0.025 µg/mL (≈ 0.0889 µM) | 0.025 µg/mL (≈ 0.0889 µM) | 0.025 µg/mL (≈ 0.0889 µM) | 0.025 µg/mL (≈ 0.0889 µM) | 0.025 µg/mL (≈ 0.0889 µM) | 0.025 µg/mL (≈ 0.0889 µM) | 0.025 µg/mL (≈ 0.0889 µM) | 0.025 µg/mL (≈ 0.0889 µM) | 0.025 µg/mL (≈ 0.0889 µM) | 0.025 µg/mL (≈ 0.0889 µM) | 0.025 µg/mL (≈ 0.0889 µM) | 0.025 µg/mL (≈ 0.0889 µM) | 0.025 µg/mL (≈ 0.0889 µM) | 0.025 µg/mL (≈ 0.0889 µM)
4 | OC(Cn1cncn1)(Cn1cncn1)c1ccc(F)cc1F [FLUCONAZOLE] | 32 µg/mL (≈ 104 µM) | 16 µg/mL (≈ 52.2 µM) | 32 µg/mL (≈ 104 µM) | 32 µg/mL (≈ 104 µM) | 16 µg/mL (≈ 52.2 µM) | 16 µg/mL (≈ 52.2 µM) | 16 µg/mL (≈ 52.2 µM) | 16 µg/mL (≈ 52.2 µM) | 16 µg/mL (≈ 52.2 µM) | 16 µg/mL (≈ 52.2 µM) | 16 µg/mL (≈ 52.2 µM) | 16 µg/mL (≈ 52.2 µM) | 16 µg/mL (≈ 52.2 µM) | 32 µg/mL (≈ 104 µM)
5 | CN1C(=O)[C@]23CC4=CC=C[C@H](O)[C@H]4N2C(=O)[C@@]1(CO)SS3 [GLIOTOXIN] | 0.06 µg/mL (≈ 0.184 µM) | 8 µg/mL (≈ 24.5 µM) | 0.06 µg/mL (≈ 0.184 µM) | 0.125 µg/mL (≈ 0.383 µM) | 2 µg/mL (≈ 6.13 µM) | 16 µg/mL (≈ 49 µM) | 16 µg/mL (≈ 49 µM) | 2 µg/mL (≈ 6.13 µM) | 8 µg/mL (≈ 24.5 µM) | 8 µg/mL (≈ 24.5 µM) | 8 µg/mL (≈ 24.5 µM) | 8 µg/mL (≈ 24.5 µM) | 8 µg/mL (≈ 24.5 µM) | 0.5 µg/mL (≈ 1.53 µM)
